Experimental data taken from patent US20190070140A1, “COMPOSITION COMPRISING PROTECTIN DX AS ACTIVE INGREDIENT FOR PREVENTING OR TREATING HYPERLIPIDEMIA OR FATTY LIVER DISEASE” (Solvit P&F, priority 2017, published 2019).

Assays:
HFD diet mouse = test: Hepatic steatosis in HFD diet mouse: H&E and Oil-Red-O staining, TG analysis kit; type: in vivo; settings: HFD mice, PDX i.p. 1 μg/mice/day for 8 weeks
Description: The present study has received the approval of the Institutional Animal Review Committee (Institutional Animal Care and Use Committee in Korea University, Seoul, Korea). The animal experiment was conducted according to the Guide for Care and Use of Laboratory Animals (NH publication, 8th Ed., 2011). A control group and a group of male C57BL/6J(B6) mice at 8 weeks of age were subjected to a normal diet (ND, Brogaarden, Gentofte, Denmark) and a high fat diet (HFD, Research Diets, New Brunswick, N.J., USA) for 8 weeks, respectively. The HFD (high fat diet) group was provided with intra-peritoneal injection of PDX for 8 weeks (1 μg/mice/day). An ethanol injection group was used as a control group.
(§1) HepG2 cells and a cut section of the liver in a mouse were stained by Oil-Red-O staining method, in order to determine cellular triglyceride such as triglyceride, that is, TG. The liver cells were fixed with 10% formalin for 40 minutes, and then stained with Oil-Red-O solution (Sigma) at 37° C. for 1 hour. A content of Oil-Red-O stained TG was quantified by adding isopropanol to each of the samples. The mixture was gently stirred at 25° C. for 8 minutes. Lastly, 100 μl of isopropanol-extracted sample was analyzed by a spectrophotometer at 510 nm.
Total lipids were extracted using a mixture of 2:1 chloroform:methanol (2:1, v/v). An organic layer was dissolved in 60% methanol immediately after drying the same. The extracted TG was measured by a colormetric TG analysis kit according to instructions of the manufacturer (Biovision, Milpitas, Calif., USA).
The present inventors have assessed PDX effects upon lipid accumulation in a mouse. For this purpose, a liver cut section from a mouse was subjected to histological assay and western-blot assay through H&E staining and Oil-Red-O staining, while TG accumulation was measured using a TG analysis kit.

ORP150 = test: Western-blot assay of ORP150 expression in livers of HFD mice; type: in vivo, mouse; settings: PDX i.p. 1 μg/mice/day for 8 weeks, FIG. 5D
Description: The present study has received the approval of the Institutional Animal Review Committee (Institutional Animal Care and Use Committee in Korea University, Seoul, Korea). The animal experiment was conducted according to the Guide for Care and Use of Laboratory Animals (NH publication, 8th Ed., 2011). A control group and a group of male C57BL/6J(B6) mice at 8 weeks of age were subjected to a normal diet (ND, Brogaarden, Gentofte, Denmark) and a high fat diet (HFD, Research Diets, New Brunswick, N.J., USA) for 8 weeks, respectively. The HFD (high fat diet) group was provided with intra-peritoneal injection of PDX for 8 weeks (1 μg/mice/day). An ethanol injection group was used as a control group. […] A protein sample (35 μg) was applied to 12% SDS-PAGE, transferred to a nitrocellulose film (Amersham Bioscience, Westborough, Mass., USA), detected with a primary antibody, followed by probing with a secondary antibody and another secondary antibody conjugated with horseradish […] (Santa Cruz Biotechnology). The sample was detected by ECL kit. The present inventors have assessed PDX effects upon lipid accumulation in a mouse. For this purpose, a liver cut section from a mouse was subjected to histological assay and western-blot assay through H&E staining and Oil-Red-O staining, while TG accumulation was measured using a TG analysis kit.

HepG2 cells = test: Palmitate-induced TG accumulation in HepG2 cells, Oil-Red-O staining with isopropyl alcohol extraction; type: cell-based, Human
Description: (§2) Human liver cells, that is, HepG2 cells (ATCC, Manassas, Va., USA) were cultured in high-glucose Dulbecco's modified eagle medium (DMEM, Invitrogen, Carlsbad, Calif., USA), which includes 10% fetal bovine serum (FBS, Invitrogen), 100 units/mL of penicillin and 100 μg/ml of streptomycin. The cells were incubated at 37° C. under a condition of 5% CO2.
(§3) Mycoplasma was not detected in HepG2 cells. PDX (Cayman Chemical, Ann Arbor, Mich., USA) was dissolved in ethanol. Sodium palmitate (Sigma, St. Louis, Mo., USA) was mixed with 2% BSA (fatty acid free level; Sigma) in DMEM. […] In all experiments, the cells were treated with palmitate-BSA and PDX for 24 hours, while 2% BSA-ethanol was used as a control group.
as §1
In the presence of 200 μM palmitate and PDX (0 to 2 μm), HepG2 cells were subjected to Oil-Red-O staining for 24 hours, while TG accumulation was quantified by isopropyl alcohol extraction.
Further, the present inventors have executed Oil-Red-O staining with respect to palmitate-treated HepG2 cells for 24 hours. TG accumulation was quantified by extraction using isopropyl alcohol.

SREBP1, FAS and SCD1 = test: Western-blot assay of adipogenesis-related genes in palmitate-treated HepG2 cells; type: cell-based, Human
Description: as §2, §3
After collecting HepG2 cells, protein was extracted from the cells with a buffer (PRO-PREF; Intron Biotechnology, Seoul, Korea) at 4° C. for 1 hour. A protein sample (35 μg) was applied to 12% SDS-PAGE, transferred to a nitrocellulose film (Amersham Bioscience, Westborough, Mass., USA), detected with a primary antibody, followed by probing with a secondary antibody and another secondary antibody conjugated with horseradish […] (Santa Cruz Biotechnology). The sample was detected by ECL kit.
Under 70% comfluency, 0 to 20 nmol/L […] (si)RNA oligonucleotide to ORP150 purchased from Santa Cruz Biotechnology was transfected to inhibit gene expression. Scramble siRNA was used as a control group. 2 or 4 μg of pCMV3-ORP150 (Sino Biological, Beijing, China) was transiently transfected, leading to over-expression of ORP150. pCMV3 empty-vector was used as a control group. According to instruction of the manufacturer, transfection was executed using lipofectamine 2000 (Invitrogen).
The present inventors have executed western-blot assay of SREBP1 expression in HepG2 cells that were treated with 200 μM palmitate and/or with 0 to 4 μg of ORP150 for 24 hours.

Compound: CC/C=C\C[C@H](O)/C=C/C=C\C=C\[C@@H](O)C/C=C\C/C=C\CCC(=O)O [PDX, 10S,17S-dihydroxy-docosa-4Z,7Z,11E,13Z,15E,19Z-hexaeonic acid]
- intracellular fat deposit rate (stained liver cut section) (HFD diet mouse; compared to HFD diet group, FIG. 5A left): decrease
- accumulation of triglyceride in the liver (HFD diet mouse; vs HFD, FIG. 5A): considerably reduced
- hepatic fibrosis (stained liver cut section) (HFD diet mouse; FIG. 5A left): very little hepatic fibrosis
- ORP150 expression suppressed in the liver by HFD (ORP150): remarkably recovered
- palmitate-induced TG accumulation (HepG2 cells; 200 μM palmitate, PDX 0 to 2 μm, 24 hours, FIG. 1A): inhibited
- TG accumulation inhibitory effects of PDX (HepG2 cells; palmitate, silencing ORP150, FIG. 2B): reduced
- palmitate-induced TG accumulation (HepG2 cells; scramble siRNA, PDX administration, FIG. 2B): inhibited
- expression of adipogenesis-related genes including SREBP1, FAS and SCD1 (SREBP1, FAS and SCD1; 24 hours, FIG. 1B): inhibited
- expression of adipogenesis-related genes SREBP1, FAS and SCD1 (SREBP1, FAS and SCD1; scramble siRNA, PDX administration, FIG. 2C): inhibited
- PDX effects of inhibiting the expression of adipogenesis-related genes (SREBP1, FAS and SCD1; silencing ORP150, FIG. 2C): significantly reduced
